Test results: paper PMC10257182, “Discovery of senolytics using machine learning” (Nature Communications, 2023)
Where a name gives a salt, the structure may show the parent alone. Read-outs that look alike come from different tables or passages of the source.

Columns and labels:
Type in all cases: cell-based, human
[1] = test system: senescent IMR90 ER:RAS cells (4-OHT-induced); experiment: Nuclei count (Hoechst, high content imaging) senolytic assay, oncogene-induced senescence (OIS) model, senescent cells
Description: To test for senolytic activity, we compared the effect of each compound on the total cell number (automated high content image-based analysis of total number of nuclei per well) in non-senescent and senescent IMR90 ER:RAS cultures treated with the top hits from the computational screen (Figs. 2e and 3a–d and Supplementary Fig. 4a–c). The drop in cell number compared to untreated controls is indicated by the nuclei count and reflects cell death[13],[15]. As positive control, we employed ouabain, a cardiac glycoside with well characterised senolytic activity.
(§1) We performed experimental validation of the compounds with z-score > 8 (Fig. 2e). […] We employed two cellular models of senescence: one of OIS and a second one of TIS. For the OIS case, we utilised IMR90 ER:RAS cells with 4-OHT at 100 nM. […] For the TIS model, we used A549 cells with etoposide at 100 μM. The exposure of the cells to etoposide lasted 48 h, after which period the cells were cultivated for a further three days with normal media.
(§2) IMR90 (CCL-186) human foetal lung fibroblasts and A549 (CCL-185) human lung adenocarcinoma cells were obtained from the American Type Culture Collection (ATCC, Manassas, VA). The cell lines were confirmed to be mycoplasma negative (Lonza MycoAlert, cat #LT07-118). IMR90 ER:RAS is a derivative of IMR90 cells expressing a switchable version of oncogenic H-Ras[84]. IMR90 ER:RAS and A549 cells were maintained in Dulbecco’s Modified Eagle Medium (DMEM, ThermoFisher) supplemented with foetal bovine serum (10%), L-glutamine (2 mM, ThermoFisher), and antibiotic-antimycotic solution (1%, ThermoFisher) and incubated under standard tissue culture conditions (37 °C and 5% CO2). For induction of the senescent phenotype, IMR90-ER:RAS cells were cultured in hydroxytamoxifen (4-OHT) (Sigma) added media at 100 nM final concentration. IMR90 were kept in culture for over 27 passages for replicative senescence. Cells were tested for mycoplasma on a regular basis.
(§3) Cells were seeded (50 μL per well) into 384-well plates (IMR90 ER:RAS cells in Nunc Optical Bottom Polybase Microplates [#142761, Thermo Scientific, Rochester, NY] and A549 cells in CELLSTAR Cell Culture Microplates [#781091, Greiner Bio-One, Kremsmünster, Austria]). Cells were incubated under standard tissue culture conditions for 24 h before the addition of compounds. Passage 14 IMR90 ER:RAS cells were seeded at 1300 cells per well in the control condition, and at 1600 cells per well in the senescent case. Passage 34 A549 cells were seeded at 7000 cells per well in the control condition, and at 10,000 cells per well in the senescent case.
(§4) Dose response plates were prepared with a DMSO control and a 10-point […] concentration range, and added to the compounds using a D300e digital dispenser (Tecan Trading AG, Switzerland) at a final concentration of between 10 μM and 10 nM. Every screened condition was carried out in triplicate. After 72 h of incubation with exposure to the compounds, cells were fixed by the addition of an equal volume of formaldehyde (8%, 50 μL; #BP531-500, Fisher Bioreagents, Fisher Scientific, Loughborough, Leicestershire) to the existing media, incubated at room temperature (30 min), and washed three times in phosphate-buffered saline (PBS). Cells were then permeabilised in Triton-X100 (0.1%, 50 μL) and incubated at room temperature (30 min) followed by three more washes with PBS.
(§5) Cells were stained with Hoechst 33342 for nuclei count (excitation/emission wavelength at 387/447 […], DAPI channel, original concentration at 10 mg/ml, final concentration at 2 μg/ml; H1399, Molecular Probes, Eugene, OR). The staining solution was prepared in bovine serum albumin solution (10%). The staining solution was added to each well (30 μL) and incubated in the dark at room temperature (30 min), followed by three washes with PBS and no final aspiration. Plates were foil sealed.

[2] = test system: senescent A549 cells (etoposide-induced); experiment: Nuclei count senolytic assay, therapy-induced senescence (TIS) model, senescent cells; details: Homo sapiens, A549, read-out: Mean % Cell Survival
Procedure: (§6) We performed a second validation of the effectiveness of our machine learning models using a different stressor. We focused on therapy-induced senescence (TIS, Supplementary Fig. 6a), where human epithelial cancerous cells (A549) were induced to become senescent by addition of etoposide. Cells were treated with 100 μM etoposide for 48 h, followed by another three days of exposure to media in standard conditions.
as §1, §2, §3, §4, §5
(§7) Plates were imaged on an ImageXpress micro XLS (Molecular Devices, Eugene, OR) equipped with a robotic plate loader (Scara4, PAA, UK).

[3] = test system: non-senescent control A549 cells; experiment: Nuclei count senolytic assay, TIS model, non-senescent control cells; details: Homo sapiens, A549, read-out: Mean % Cell Survival
Procedure: as §6, §1, §2, §3, §4, §5, §7

C[C@H](CCC(=O)NCCS(=O)(=O)O)[C@H]1CC[C@H]2[C@@H]3[C@H](O)C[C@@H]4C[C@H](O)CC[C@]4(C)[C@H]3C[C@H](O)[C@]12C [Taurocholic acid sodium, taurocholic acid sodium salt hydrate]
viability at 10 µM ([1]; Homo sapiens, IMR-90, 72 h, read-out: Mean % Cell Survival, Senescent, log (dose) [M] -5, 72 h, mean n=3 (Fig 3C)): 110% | viability at 4.677 µM ([1]; Homo sapiens, IMR-90, 72 h, read-out: Mean % Cell Survival, Senescent, log (dose) [M] -5.33, 72 h, mean n=3 (Fig 3C)): 132% | viability at 2.188 µM ([1]; Homo sapiens, IMR-90, 72 h, read-out: Mean % Cell Survival, Senescent, log (dose) [M] -5.66, 72 h, mean n=3 (Fig 3C)): 115% | viability at 1 µM ([1]; Homo sapiens, IMR-90, 72 h, read-out: Mean % Cell Survival, Senescent, log (dose) [M] -6, 72 h, mean n=3 (Fig 3C)): 123% | viability at 0.4677 µM ([1]; Homo sapiens, IMR-90, 72 h, read-out: Mean % Cell Survival, Senescent, log (dose) [M] -6.33, 72 h, mean n=3 (Fig 3C)): 106% | viability at 0.2188 µM ([1]; Homo sapiens, IMR-90, 72 h, read-out: Mean % Cell Survival, Senescent, log (dose) [M] -6.66, 72 h, mean n=3 (Fig 3C)): 99.8% | viability at 0.1 µM ([1]; Homo sapiens, IMR-90, 72 h, read-out: Mean % Cell Survival, Senescent, log (dose) [M] -7, 72 h, mean n=3 (Fig 3C)): 96.6% | viability at 0.04677 µM ([1]; Homo sapiens, IMR-90, 72 h, read-out: Mean % Cell Survival, Senescent, log (dose) [M] -7.33, 72 h, mean n=3 (Fig 3C)): 108% | viability at 0.02188 µM ([1]; Homo sapiens, IMR-90, 72 h, read-out: Mean % Cell Survival, Senescent, log (dose) [M] -7.66, 72 h, mean n=3 (Fig 3C)): 112% | viability at 0.01 µM ([1]; Homo sapiens, IMR-90, 72 h, read-out: Mean % Cell Survival, Senescent, log (dose) [M] -8, 72 h, mean n=3 (Fig 3C)): 107% | viability at 0.2188 µM ([1]; Homo sapiens, IMR-90, read-out: % Cell Survival, Senescent cells, log (dose) [M] -6.66, individual replicates, SUP FIG 4C): 105% | viability at 0.1 µM ([1]; Homo sapiens, IMR-90, read-out: % Cell Survival, Senescent cells, log (dose) [M] -7, individual replicates, SUP FIG 4C): 101% | viability at 4.677 µM ([1]; Homo sapiens, IMR-90, read-out: % Cell Survival, Senescent, log (dose) [M] -5.33): 118% | senolytic activity (in words) ([1]; experimental screen, OIS IMR90 ER:RAS): inactive | viability at 0.01 µM [2]: 103% | viability at 0.0219 µM [2]: 108% | viability at 0.0468 µM [2]: 103% | viability at 0.1 µM [2]: 100% | viability at 0.219 µM [2]: 109% | viability at 0.468 µM [2]: 113% | viability at 1 µM [2]: 112% | viability at 2.19 µM [2]: 106% | viability at 4.68 µM [2]: 109% | viability at 10 µM [2]: 107% | viability at 0.01 µM [3]: 66.6% | viability at 0.0219 µM [3]: 32.6% | viability at 0.0468 µM [3]: 97.7% | viability at 0.1 µM [3]: 29.1% | viability at 0.219 µM [3]: 62.6% | viability at 0.468 µM [3]: 97.8% | viability at 1 µM [3]: 95.9% | viability at 2.19 µM [3]: 69.4% | viability at 4.68 µM [3]: 66.2% | viability at 10 µM [3]: 96.3%

C[C@@H]1O[C@@H](O[C@H]2C[C@@H](O)[C@]3(CO)[C@H]4[C@H](O)C[C@]5(C)[C@@H](C6=CC(=O)OC6)CC[C@]5(O)[C@@H]4CC[C@]3(O)C2)[C@H](O)[C@H](O)[C@H]1O [Ouabain, ouabain, reference compound]
viability at 10 µM ([1]; Homo sapiens, IMR-90, 72 h, Senescent, log (dose) [M] -5, 72 h, mean n=3 (Fig 3C), read-out: Mean % Cell Survival): 2.57% | viability at 4.677 µM ([1]; Homo sapiens, IMR-90, 72 h, Senescent, log (dose) [M] -5.33, 72 h, mean n=3 (Fig 3C), read-out: Mean % Cell Survival): 2.79% | viability at 2.188 µM ([1]; Homo sapiens, IMR-90, 72 h, Senescent, log (dose) [M] -5.66, 72 h, mean n=3 (Fig 3C), read-out: Mean % Cell Survival): 3.51% | viability at 1 µM ([1]; Homo sapiens, IMR-90, 72 h, Senescent, log (dose) [M] -6, 72 h, mean n=3 (Fig 3C), read-out: Mean % Cell Survival): 4.22% | viability at 0.4677 µM ([1]; Homo sapiens, IMR-90, 72 h, Senescent, log (dose) [M] -6.33, 72 h, mean n=3 (Fig 3C), read-out: Mean % Cell Survival): 4.07% | viability at 0.2188 µM ([1]; Homo sapiens, IMR-90, 72 h, Senescent, log (dose) [M] -6.66, 72 h, mean n=3 (Fig 3C), read-out: Mean % Cell Survival): 2.69% | viability at 0.1 µM ([1]; Homo sapiens, IMR-90, 72 h, Senescent, log (dose) [M] -7, 72 h, mean n=3 (Fig 3C), read-out: Mean % Cell Survival): 4.75% | viability at 0.04677 µM ([1]; Homo sapiens, IMR-90, 72 h, Senescent, log (dose) [M] -7.33, 72 h, mean n=3 (Fig 3C), read-out: Mean % Cell Survival): 11.8% | viability at 0.02188 µM ([1]; Homo sapiens, IMR-90, 72 h, Senescent, log (dose) [M] -7.66, 72 h, mean n=3 (Fig 3C), read-out: Mean % Cell Survival): 73% | viability at 0.01 µM ([1]; Homo sapiens, IMR-90, 72 h, Senescent, log (dose) [M] -8, 72 h, mean n=3 (Fig 3C), read-out: Mean % Cell Survival): 89.4% | viability at 10 µM ([1]; Homo sapiens, IMR-90, senescence cells, log (dose) [M] -5, read-out: % Cell Survival): 2.5% | viability at 4.677 µM ([1]; Homo sapiens, IMR-90, senescence cells, log (dose) [M] -5.33, read-out: % Cell Survival): 2.14% | viability at 2.188 µM ([1]; Homo sapiens, IMR-90, senescence cells, log (dose) [M] -5.66, read-out: % Cell Survival): 4.05% | viability at 1 µM ([1]; Homo sapiens, IMR-90, senescence cells, log (dose) [M] -6, read-out: % Cell Survival): 4.29% | viability at 0.4677 µM ([1]; Homo sapiens, IMR-90, senescence cells, log (dose) [M] -6.33, read-out: % Cell Survival): 5.48% | viability at 0.2188 µM ([1]; Homo sapiens, IMR-90, senescence cells, log (dose) [M] -6.66, read-out: % Cell Survival): 3.1% | viability at 0.1 µM ([1]; Homo sapiens, IMR-90, senescence cells, log (dose) [M] -7, read-out: % Cell Survival): 4.88% | viability at 0.04677 µM ([1]; Homo sapiens, IMR-90, senescence cells, log (dose) [M] -7.33, read-out: % Cell Survival): 11.2% | viability at 0.02188 µM ([1]; Homo sapiens, IMR-90, senescence cells, log (dose) [M] -7.66, read-out: % Cell Survival): 70.8% | viability at 0.01 µM ([1]; Homo sapiens, IMR-90, senescence cells, log (dose) [M] -8, read-out: % Cell Survival): 86.1% | IC50 ([1]; Homo sapiens, IMR-90, OIS model, 4-OHT-induced IMR90 ER:RAS, nuclei count, 72 h): 0.028 µM | dose showing the clearest / optimal senolytic effect ([1]; OIS IMR90 ER:RAS, Hoechst nuclei count, marginal effect on normal cells): 46.4 nM
